Results reported in PMC7979765, “trans-Translation inhibitors bind to a novel site on the ribosome and clear Neisseria gonorrhoeae in vivo” (Nature Communications, 2021).
Where two headings read alike, the source gives them in different places.

Assay: Pharmacokinetic analyses in mice (PO suspension, IV, SC)
Assay type: in vivo, mouse
Details: in vivo
Method: Female CD-1 mice as above were fasted for 2 h prior, and 4 h after dosing. […] […], 3 mice from each group were euthanized by CO2 inhalation, blood was collected by cardiac puncture into K2EDTA collection tubes, and protein was precipitated and analysed by LC/MS-MS for plasma concentrations of MBX-4132. Data were analysed using WinNonLin.
[…] At 0.083, 0.5, 1, 4, 8 and 24 h post dose, blood was collected from 3 mice/group by tail vein or facial bleed into K2EDTA collection tubes, and protein was precipitated and analysed by LC/MS-MS for plasma concentrations of MBX-4132. Sampling was performed serially, with each mouse contributing sample at all time points. Data were analysed using WinNonLin.

[1] = female, CD-1, mouse, sc, 10 mg/kg, SC (10 mg/kg), mean of 3 animals, read-out: MBX 4132 Concentrations in Mouse Plasma, Mean
[2] = female, CD-1, mouse, sc, 10 mg/kg, SC (10 mg/kg), individual animals, read-out: MBX 4132 Concentrations in Mouse Plasma
[3] = female, CD-1, mouse, sc, 25 mg/kg, SC (25 mg/kg), individual animals, read-out: MBX 4132 Concentrations in Mouse Plasma
[4] = female, CD-1, mouse, sc, 25 mg/kg, SC (25 mg/kg), mean of 3 animals, read-out: MBX 4132 Concentrations in Mouse Plasma, Mean
[5] = mouse, iv, 10 mg/kg, IV (10 mg/kg), individual animals, read-out: MBX 4132 Concentrations in Mouse Plasma
[6] = mouse, iv, 10 mg/kg, IV (10 mg/kg), mean of 3 animals, read-out: MBX 4132 Concentrations in Mouse Plasma, Mean
[7] = mouse, po, 10 mg/kg, PO (10 mg/kg), mean of 3 animals, read-out: MBX 4132 Concentrations in Mouse Plasma, Mean
[8] = mouse, po, 10 mg/kg, PO (10 mg/kg), individual animals, read-out: MBX 4132 Concentrations in Mouse Plasma

O=C(Nc1nnc(-c2ccc(F)cc2)o1)N1CCc2ccccc2C1 [MBX 4132]
concentration at 8 h (female, CD-1, mouse, po, 10 mg/kg, PO (10 mg/kg susp.), mean of 3 animals, read-out: MBX 4132 Concentrations in Mouse Plasma, Mean): 9920 ng/mL | concentration at 24 h (female, CD-1, mouse, po, 10 mg/kg, PO (10 mg/kg susp.), individual animals, read-out: MBX 4132 Concentrations in Mouse Plasma): < 62.5 ng/mL | concentration at 0.083 h (female, CD-1, mouse, po, 10 mg/kg, PO (10 mg/kg), mean of 3 animals, read-out: MBX 4132 Concentrations in Mouse Plasma, Mean): 1260 ng/mL | concentration at 0.083 h [1]: 786 ng/mL | concentration at 0.5 h [2]: 3430 ng/mL | concentration at 0.5 h [1]: 3780 ng/mL | concentration at 1 h [2]: 3480 ng/mL | concentration at 1 h [1]: 3350 ng/mL | concentration at 4 h [2]: 3280 ng/mL | concentration at 4 h [1]: 2850 ng/mL | concentration at 8 h [2]: 2000 ng/mL | concentration at 8 h [1]: 2430 ng/mL | concentration at 24 h [2]: 599 ng/mL | concentration at 24 h [1]: 608 ng/mL | concentration at 0.083 h [3]: 1170 ng/mL | concentration at 0.083 h [4]: 1510 ng/mL | concentration at 0.5 h [4]: 5010 ng/mL | concentration at 1 h [3]: 3020 ng/mL | concentration at 1 h [4]: 4580 ng/mL | concentration at 4 h [3]: 2380 ng/mL | concentration at 4 h [4]: 3010 ng/mL | concentration at 8 h [3]: 3420 ng/mL | concentration at 8 h [4]: 4040 ng/mL | concentration at 24 h [3]: 1540 ng/mL | concentration at 24 h [4]: 1800 ng/mL | concentration at 0.083 h [5]: 74600 ng/mL | concentration at 0.083 h [6]: 66300 ng/mL | concentration at 0.5 h [5]: 30600 ng/mL | concentration at 0.5 h [6]: 32900 ng/mL | concentration at 1 h [5]: 21000 ng/mL | concentration at 1 h [6]: 21400 ng/mL | concentration at 4 h [5]: 7790 ng/mL | concentration at 4 h [6]: 7590 ng/mL | concentration at 8 h [5]: 3920 ng/mL | concentration at 8 h [6]: 3730 ng/mL | concentration at 0.5 h [7]: 1360 ng/mL | concentration at 1 h [8]: 1090 ng/mL | concentration at 1 h [7]: 1440 ng/mL | concentration at 4 h [8]: 1680 ng/mL | concentration at 4 h [7]: 2170 ng/mL | concentration at 8 h [8]: 4350 ng/mL | concentration at 8 h [7]: 5110 ng/mL | concentration at 24 h [7]: 58 ng/mL
